Data published in US9827228B2, “Opioid receptor modulators and use thereof” (priority 2015, dated 2017).
Read-outs that look alike come from different tables or passages of the source.

Target: T1, hMOR (Homo sapiens, UniProt P35372)
T1 construct: host or cells: CHO-K1
Experiment: cell-based
Type: cell-based
Details: for AUC: AUC of [Ca2+]i fluorescence
Description: Chinese hamster ovary (CHO)-K1 cells expressing hMOR and Gα15 (CHO-K1/MOR/Gα15) were cultured in F12 medium (GIBCO) supplemented with 10 μg/mL Hygromycin B (Invivogen), 20 μg/mL Zeocin (Invivogen) and P/S/F (100 units/mL penicillin, 100 μg/mL streptomycin, 10% fetal bovine serum). The cultures were incubated at 37° C. in a humidified 5% CO2 incubator.
One day prior to running the assay, CORNING® black 96-well assay plates having a clear flat bottom were coated with a 0.1 mg/mL Poly-L-Lysine solution. CHO-K1/MOR/Gα15 cells were suspended in F12 medium and plated at a density of about 8×10^4 cells/well in 200 μL medium. Cells were incubated under a humidified atmosphere of 10% CO2 at 37° C. overnight to reach an 80-90% confluent cell monolayer before the assay. On the day of the assay, 150 μL medium was removed from each well of the plates. To each well were added FLIPR® calcium assay reagents (Molecular Devices Corporation, Sunnyvale, Calif., USA; 50 μL) dissolved in 1× assay buffer (HBSS: KCl 5 mM, KH2PO4 0.3 mM, NaCl 138 mM, NaHCO3 4 mM, Na2HPO4 0.3 mM, d-glucose 5.6 mM, with additional 20 mM HEPES and […], pH 7.4) and 2.5 mM probenecid. After incubation at 37° C. for 1 hour, a test compound, alone or together with naloxone (a MOR antagonist), was also added to each well. Using a FlexStationlll instrument (Molecular Devices Corp.), increments of the [Ca^2+]i fluorescence after robotic injection of the cell suspension were monitored at 1.52 s intervals using the excitation wavelength of 485 nm and the emission wavelength of 525 nm. The [Ca^2+]i fluorescence was measured up to 90 s after the injection. The fluorescence intensity from 6 to 12 wells of cells were averaged and the relative amount of [Ca^2+]i release was determined by integrating the AUC of the [Ca^2+]i fluorescence averages.
A CHO-K1 cell line expressing MOR and Gα15 (GenScript) was used to set up a sensitive high-throughput screen (HTS) system. […] The HTS was performed in the absence or presence of naloxone (an opioid antagonist; 20 nM), to identify AAMs.

[1] = combined with naloxone, CHO-K1/MOR/Gα15 cells
[2] = combined with naloxone, CHO-K1/MOR/Gα15 cells, read-out: EC50
[3] = EC50, combined with naloxone, CHO-K1/MOR/Gα15 cells

T1 sequence (P35372 whole entry): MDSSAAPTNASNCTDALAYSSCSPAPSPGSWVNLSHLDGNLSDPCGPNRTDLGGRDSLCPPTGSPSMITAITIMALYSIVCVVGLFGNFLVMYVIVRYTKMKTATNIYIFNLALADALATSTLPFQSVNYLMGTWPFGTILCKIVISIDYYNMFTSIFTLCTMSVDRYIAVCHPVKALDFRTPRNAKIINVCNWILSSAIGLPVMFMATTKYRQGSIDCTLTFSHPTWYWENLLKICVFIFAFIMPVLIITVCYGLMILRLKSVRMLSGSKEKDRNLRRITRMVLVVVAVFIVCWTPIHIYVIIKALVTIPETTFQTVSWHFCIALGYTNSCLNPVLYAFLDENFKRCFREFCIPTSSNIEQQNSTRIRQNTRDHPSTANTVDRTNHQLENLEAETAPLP

CCc1ccccc1Nc1nc(-c2sc(-c3ccccc3)nc2C)cs1 [Compound 92, N-(2-Ethylphenyl)-4′-methyl-2′-phenyl-4,5′-bi-1,3-thiazol-2-amine]
AUC [1]: − (−: <5000)
EC50 [2]: > 10 µM

Cc1nc(C)c(-c2csc(Nc3ccc(C(=O)O)cc3C)n2)s1 [Compound 57, 4-[(2′,4′-Dimethyl-4,5′-bi-1,3-thiazol-2-yl)amino]-3-methylbenzoic acid]
AUC [1]: − (−: <5000)
EC50 [2]: > 10 µM

Cc1nc(C)c(-c2csc(Nc3c(C)cccc3C)n2)s1 [Compound 41, N-(2,6-Dimethylphenyl)-2′,4′-dimethyl-4,5′-bi-1,3-thiazol-2-amine]
AUC [1]: − (−: <5000)
EC50 [2]: > 10 µM

Cc1nc(C)c(-c2csc(Nc3c(C)cccc3F)n2)s1 [Compound 33, N-(2-Fluoro-6-methylphenyl)-2′,4′-dimethyl-4,5′-bi-1,3-thiazol-2-amine]
AUC [1]: + (+: >5000)
EC50 (EC50, combined with naloxone): < 10 µM
EC50 [3]: 3 to 10 µM

Cc1nc(C)c(-c2csc(Nc3ccccc3O)n2)s1 [Compound 65, 2-[(2′,4′-Dimethyl-4,5′-bi-1,3-thiazol-2-yl)amino]phenol]
AUC [1]: + (+: >5000)
EC50 [2]: > 10 µM

CCc1cccc(CC)c1Nc1nc(-c2sc(C)nc2C)cs1 [Compound 45, N-(2,6-Diethylphenyl)-2′,4′-dimethyl-4,5′-bi-1,3-thiazol-2-amine]
AUC [1]: − (−: <5000)
EC50 (EC50, combined with naloxone): < 10 µM
EC50 [3]: 1 to 3 µM

CCc1ccccc1Nc1nc(-c2ccccn2)cs1 [Compound 123, N-(2-Ethylphenyl)-4-(2-pyridinyl)-1,3-thiazol-2-amine]
AUC [1]: − (−: <5000)
EC50 [2]: > 10 µM

Cc1nc(C)c(-c2csc(Nc3ccc(O)cc3C)n2)s1 [Compound 60, 4-[(2′,4′-Dimethyl-4,5′-bi-1,3-thiazol-2-yl)amino]-3-methylphenol]
AUC [1]: − (−: <5000)
EC50 [2]: > 10 µM

Cc1nc(C)c(-c2csc(Nc3ccccc3-n3cccc3)n2)s1 [Compound 72, 2′,4′-Dimethyl-N-[2-(1H-pyrrol-1-yl)phenyl]-4,5′-bi-1,3-thiazol-2-amine]
AUC [1]: − (−: <5000)
EC50 [2]: > 10 µM

CCc1ccccc1Nc1ncc(-c2sc(C)nc2C)o1 [Compound 107, 5-(2,4-Dimethyl-1,3-thiazol-5-yl)-N-(2-ethylphenyl)-1,3-oxazol-2-amine]
AUC [1]: + (+: >5000)
EC50 [2]: > 10 µM

Cc1nc(C)c(-c2csc(Nc3cc(Br)ccc3C)n2)s1 [Compound 19, N-(5-Bromo-2-methylphenyl)-2′,4′-dimethyl-4,5′-bi-1,3-thiazol-2-amine]
AUC [1]: − (−: <5000)
EC50 [2]: > 10 µM

Cc1ccc(Nc2nc(-c3sc(-c4ccccc4)nc3C)cs2)c(C)c1 [Compound 93, N-(2,4-Dimethylphenyl)-4′-methyl-2′-phenyl-4,5′-bi-1,3-thiazol-2-amine]
AUC [1]: − (−: <5000)
EC50 [2]: > 10 µM

CCc1ccccc1Nc1nc(-c2ccc(C)cc2)cs1 [Compound 121, N-(2-Ethylphenyl)-4-(4-methylphenyl)-1,3-thiazol-2-amine]
AUC [1]: − (−: <5000)
EC50 [2]: > 10 µM

Cc1ccc(Nc2nc(-c3sc(C)nc3C)cs2)c(C)c1 [Compound 29, N-(2,4-Dimethylphenyl)-2′,4′-dimethyl-4,5′-bi-1,3-thiazol-2-amine]
AUC [1]: + (+: >5000)
EC50 (EC50, combined with naloxone): < 10 µM
EC50 [3]: 3 to 10 µM

CCc1ccccc1Nc1nccs1 [Compound 131, N-(2-Ethylphenyl)-1,3-thiazol-2-amine]
AUC [1]: − (−: <5000)
EC50 [2]: > 10 µM

COc1cc(C)c(Nc2nc(-c3sc(C)nc3C)cs2)cc1OC [Compound 27, N-(4,5-Dimethoxy-2-methylphenyl)-2′,4′-dimethyl-4,5′-bi-1,3-thiazol-2-amine]
AUC [1]: − (−: <5000)
EC50 [2]: > 10 µM

COc1cccc(C)c1Nc1nc(-c2sc(C)nc2C)cs1 [Compound 4, N-(2-Methoxy-6-methylphenyl)-2′,4′-dimethyl-4,5′-bi-1,3-thiazol-2-amine]
AUC [1]: + (+: >5000)
EC50 [2]: > 10 µM

Cc1nc(C)c(-c2csc(Nc3cc(F)ccc3C)n2)s1 [Compound 10, N-(5-Fluoro-2-methylphenyl)-2′,4′-dimethyl-4,5′-bi-1,3-thiazol-2-amine]
AUC [1]: − (−: <5000)
EC50 [2]: > 10 µM

CCc1ccccc1Nc1nc2c(s1)Cc1ccccc1-2 [Compound 127, N-(2-Ethylphenyl)-8H-indeno[1,2-d][1,3]thiazol-2-amine]
AUC [1]: − (−: <5000)
EC50 [2]: > 10 µM

Cc1nc(C)c(-c2csc(Nc3ccccc3N3CCCCC3)n2)s1 [Compound 68, 2′,4′-Dimethyl-N-[2-(1-piperidinyl)phenyl]-4,5′-bi-1,3-thiazol-2-amine]
AUC [1]: − (−: <5000)
EC50 [2]: > 10 µM

Cc1nc(C)c(-c2csc(Nc3ccc(Br)cc3C)n2)s1 [Compound 42, N-(4-Bromo-2-methylphenyl)-2′,4′-dimethyl-4,5′-bi-1,3-thiazol-2-amine]
AUC [1]: − (−: <5000)
EC50 [2]: > 10 µM

Cc1csc(Nc2nc(-c3sc(C)nc3C)cs2)n1 [Compound 114, 2′,4′-Dimethyl-N-(4-methyl-1,3-thiazol-2-yl)-4,5′-bi-1,3-thiazol-2-amine]
AUC [1]: − (−: <5000)
EC50 [2]: > 10 µM

CCc1ccccc1Nc1nc(-c2sc(N)nc2C)cs1 [Compound 100, N^2-(2-ethylphenyl)-4′-methyl-4,5′-bi-1,3-thiazole-2,2′-diamine]
AUC [1]: − (−: <5000)
EC50 [2]: > 10 µM

CCc1ccccc1Nc1nc(C)cs1 [Compound 132, N-(2-Ethylphenyl)-4-methyl-1,3-thiazol-2-amine]
AUC [1]: − (−: <5000)
EC50 [2]: > 10 µM

Cc1nc(C)c(-c2csc(Nc3c(C)cc(F)cc3C)n2)s1 [Compound 55, N-(4-Fluoro-2,6-dimethylphenyl)-2′,4′-dimethyl-4,5′-bi-1,3-thiazol-2-amine]
AUC [1]: + (+: >5000)
EC50 [2]: > 10 µM

Cc1nc(C)c(-c2csc(Nc3cccc(C)c3C)n2)s1 [Compound 53, N-(2,3-Dimethylphenyl)-2′,4′-dimethyl-4,5′-bi-1,3-thiazol-2-amine]
AUC [1]: + (+: >5000)
EC50 [2]: > 10 µM

Cc1nc(C)c(-c2csc(Nc3ccccc3F)n2)s1 [Compound 9, N-(2-Fluorophenyl)-2′,4′-dimethyl-4,5′-bi-1,3-thiazol-2-amine]
AUC [1]: − (−: <5000)
EC50 [2]: > 10 µM

CCc1ccccc1Nc1nc(-c2cccs2)cs1 [Compound 124, N-(2-Ethylphenyl)-4-(2-thiophenyl)-1,3-thiazol-2-amine]
AUC [1]: − (−: <5000)
EC50 [2]: > 10 µM

CCc1cc(Br)ccc1Nc1nc(-c2sc(C)nc2C)cs1 [Compound 49, N-(4-Bromo-2-ethylphenyl)-2′,4′-dimethyl-4,5′-bi-1,3-thiazol-2-amine]
AUC [1]: − (−: <5000)
EC50 (EC50, combined with naloxone): < 10 µM
EC50 [3]: 3 to 10 µM

CCc1ccc(C)nc1Nc1nc(-c2sc(C)nc2C)cs1 [Compound 82, N-(3-Ethyl-6-methyl-2-pyridinyl)-2′,4′-dimethyl-4,5′-bi-1,3-thiazol-2-amine]
AUC [1]: − (−: <5000)
EC50 [2]: > 10 µM

CC(=O)c1ccc(Nc2nc(-c3sc(C)nc3C)cs2)cc1 [Compound 44, 1-{4-[(2′,4′-Dimethyl-4,5′-bi-1,3-thiazol-2-yl)amino]phenyl}ethanone]
AUC [1]: − (−: <5000)
EC50 [3]: > 10 µM
